In BindingDB's records for doi:10.1016/j.bmcl.2003.11.047 (National Chung-Hsing University, 2004):

Molecular target: Phospholipase A2 (Naja mossambica)
Experiment: Binding affinity against phospholipase A2 of Naja mocambique mocambique

CCCCCCCCNC(=O)Oc1cccc(OC(=O)NCCCCCCCC)c1 [Octyl-carbamic acid 3-octylcarbamoyloxy-phenyl ester]
Ki: 4 µM

CCCCCCCCNC(=O)Oc1ccc(OC(=O)NCCCCCCCC)cc1 [Octyl-carbamic acid 4-octylcarbamoyloxy-phenyl ester]
Ki: 15 µM
